In brackets after ≈: the same amount, converted by molar mass. Like-named read-outs stand apart in the source and are kept apart here.
Assays:
[1] = Plasma protein binding assay (PPB), equilibrium dialysis; format: in vitro ADME; details: 10% FCS in PBS; for fraction unbound: bovine, read-out: PPB 10% FCS (% fu)
Protocol: Binding of test compounds to plasma was determined using equilibrium dialysis (ED) and quantitative mass spectrometry interfaced with liquid chromatography (LC-MS). In brief, ED was performed with dialysis devices consisting of two chambers separated by a semipermeable membrane with a molecular weight cut-off of 5-10 kg/mol. One chamber was filled with 10% FCS in PBS containing 1-10 μmol/L test compound and the other chamber was filled with phosphate-buffer saline (PBS) with or without dextran. The dialysis chamber was incubated for 3-5 hours at 37° C. After incubation, protein was precipitated from aliquots of each chamber and the concentration of test compound in the supernatant of the plasma-containing compartment (cserum) and of the buffer-containing compartment (cbuffer) was determined by LC-MS. The fraction of unbound test compound (not bound to plasma) (f) was calculated according to the following equation: […]

MKN1 cells = assay: MKN1 CTG proliferation assay (120 h) (gastric cancer, wt amplified); format: cell-based; details: Homo sapiens, MKN-1
Protocol: MKN1 cells (JCRB0252) are dispensed into black 384-well plates, flat and clear bottom (Greiner, PNr. 781091) at a density of 200 cells per well in 60 μl RPMI-1640 ATCC-Formulation (Gibco #A10491)+10% FCS (fetal calf serum, HyClone, SH30084.03). Cells are incubated overnight at 37° C. in a humidified tissue culture incubator at 5% CO2. Compounds (10 mM stock in DMSO) are added at logarithmic dose series using the ECHO acoustic liquid handler system (Beckman Coulter), normalizing for added DMSO and including DMSO controls. All compound treatments are performed in technical duplicates. For the TO time point measurement, untreated cells are analyzed at the time of compound addition. Plates are incubated for 120 h, and cell viability is measured using CellTiter-Glo luminescent cell viability reagent (Promega product code G7570). Viability (stated as percent of control) is defined as relative luminescence units RLU of each well divided by the RLU of cells in DMSO controls. IC50 values are determined from viability measurements by non-linear regression using a four-parameter model.
IC50 values of representative compounds according to the invention measured with these assays in the indicated cell lines are presented in Table 46.

[2] = molecular target: KRAS (G12C)::SOS1 protein-protein interaction (Homo sapiens (Human), UniProt P01116, C118S/C51S/C80L/G12C); assay: KRAS::SOS1 AlphaScreen binding assay (KRAS G12C); details: GDP
KRAS (G12C)::SOS1 protein-protein interaction, sequence (P01116 other isoform, or with tags, fused parts or gaps G12C/C51S/C80L/C118S): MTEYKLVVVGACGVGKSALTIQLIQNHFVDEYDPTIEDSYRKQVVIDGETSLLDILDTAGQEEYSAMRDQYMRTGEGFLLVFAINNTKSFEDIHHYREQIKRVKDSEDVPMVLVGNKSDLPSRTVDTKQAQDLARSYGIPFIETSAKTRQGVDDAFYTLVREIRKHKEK
Description: This assay can be used to examine the potency with which compounds according to the invention binding to (mutated) KRAS inhibit the protein-protein interaction between SOS1 and (mutated) KRAS e.g. KRAS G12C, KRAS G12D. […] Low IC50 values in this assay setting are indicative of strong inhibition of protein-protein interaction between SOS1 and KRAS:
These assays measure the inhibitory effect of compounds on KRAS mutant protein-protein interactions using the Alpha Screen technology by Perkin Elmer.
The following (mutant) enzyme forms of KRAS and interacting proteins are used in these assays at the given concentrations:
KRAS (G12C) 1-169, N-terminal 6His-tag for purification, cleaved off, C-terminal avi-tag, biotinylated, mutations: C51S, C80L, C118S (in house); final assay concentration 7.5 nM and SOS1 564-1049, N-terminal 229 GST-tag, TEV cleavage site (Viva Biotech Ltd); final assay concentration 5 nM;
Test compounds dissolved in DMSO are dispensed onto assay plates (Proxiplate 384 PLUS, white, PerkinElmer; 6008289) using an Access Labcyte Workstation with the Labcyte Echo 55x. For the chosen highest assay concentration of 100 μM, 150 nL of compound solution are transferred from a 10 mM DMSO compound stock solution. A series of eleven fivefold dilutions per compound are transferred to the assay plate, compound dilutions are tested in duplicates. DMSO are added as backfill to a total volume of 150 nL.
The assays run on a fully automated robotic system in a darkened room below 100 Lux. To 150 nl of compound dilution 10 μl of a mix including KRAS mutant protein, SOS1 (final assay concentrations see above) and GDP nucleotide (Sigma G7127; final assay concentration 10 μM) in assay buffer (1×PBS, 0.1% BSA, 0.05% Tween 20) are added into columns 1-24.
After 30 minutes incubation time 5 μl of Alpha Screen bead mix in assay buffer are added into columns 1-23. Bead mix consists of AlphaLISA Glutathione Acceptor Beads (PerkinElmer, Cat No AL109) and AlphaScreen Streptavidin Donor Beads (PerkinElmer Cat No 6760002) in assay buffer at a final assay concentration of 10 μg/mL each.
Plates are kept at room temperature in a darkened incubator. After an additional 60 minutes incubation time the signal is measured in a PerkinElmer Envision HTS Multilabel Reader using the AlphaScreen specs from PerkinElmer.
Each plate contains up to 16 wells of a negative control depending on the dilution procedure (platewise or serial) (DMSO instead of test compound; with KRAS mutant::SOS1 GOP mix and bead mix; column 23) and 16 wells of a positive control (DMSO instead of test compound; with KRAS mutant::SOS1 GOP mix w/o bead mix; column 24).
As internal control known inhibitors of KRAS mutant::SOS1 interaction can be measured on each compound plate.
IC50 values are calculated and analyzed with Boehringer Ingelheim's MEGALAB C50 application using a 4 parametric logistic model.
Tables of example compounds disclosed herein contain IC50 values determined using the above assays (see Table 43).

[3] = Solubility measurement (DMSO solution precipitation method); format: physicochemical; details: for solubility at 24 h: aqueous buffer, kinetic from dmso stock
Protocol: A 10 mM DMSO stock solution of a test compound is used to determine its aq. solubility. The DMSO solution is diluted with an aq. medium (McIlvaine buffer with pH=4.5 or 6.8) to a final concentration of 250 μM. After 24 h of shaking at ambient temperature a potentially formed precipitate is removed by filtration. The concentration of the test compound in the filtrate is determined by LC-UV methods by calibrating the signal to the signal of a reference solution with complete dissolution of the test compound in acetonitrile/water (1:1) with known concentration.

[4] = McIlvaine buffer pH 4.5, 24 h, read-out: solubility pH 4.5
[5] = McIlvaine buffer pH 6.8, 24 h, read-out: solubility pH 6.8

Row | SMILES | fraction unbound [1] | IC50 (MKN1 cells) [nM] | IC50 [2] [nM] | solubility at 24 h [3, 4] [µg/mL] | solubility at 24 h [3, 5] [µg/mL] | PPB 10% FCS (% fu) ([1]; fraction unbound) | solubility pH 4.5 ([3]; McIlvaine buffer pH 4.5, 24 h, from DMSO stock) [μg/ml] | solubility pH 6.8 ([3]; McIlvaine buffer pH 6.8, 24 h, from DMSO stock) [μg/mL]
1 | COCCn1c(=O)n([C@@H]2CCOC2)c2nc(-c3onc4c3CCC[C@@]43CCCc4sc(N)c(C#N)c43)nc(O[C@@H](C)[C@@H]3CCCN3C)c21 [I-1] | 0.34 | 300 | 2 | > 157 | > 155 |  |  | 
2 | CO[C@H]1C[C@@H]([C@H](C)Oc2nc(-c3onc4c3CCC[C@@]43CCCc4sc(N)c(C#N)c43)nc3c2n(C)c(=O)n3[C@@H]2CCOC2)N(C)C1 [I-2] | 0.15 | 95 | 1 | > 159 | 115 (≈ 174 µM) |  |  | 
3 | CO[C@@H]1C[C@@H]([C@H](C)Oc2nc(-c3onc4c3CCC[C@@]43CCCc4sc(N)c(C#N)c43)nc3c2n(C)c(=O)n3[C@@H]2CCOC2)N(C)C1 [I-3] | 0.11 | 22 | 1 | > 157 | 77 (≈ 117 µM) |  |  | 
4 | C[C@H](Oc1nc(-c2onc3c2CCC[C@@]32CCCc3sc(N)c(C#N)c32)nc2c1n(C)c(=O)n2[C@@H]1CCOC1)[C@@H]1[C@H](F)CCN1C [I-4] | 0.13 | 509 | 2 | > 152 | 28 (≈ 43.2 µM) |  |  | 
5 | C[C@H](Oc1nc(-c2onc3c2CCC[C@@]32CCCc3sc(N)c(C#N)c32)nc2c1n(C)c(=O)n2[C@@H]1CCOC1)[C@@H]1[C@@H](F)CCN1C [I-5] | 0.03 | 113 | 1 | > 150 | 2 (≈ 3.08 µM) |  |  | 
6 | CO[C@H]1CCN(C)[C@@H]1[C@H](C)Oc1nc(-c2onc3c2CCC[C@@]32CCCc3sc(N)c(C#N)c32)nc2c1n(C)c(=O)n2[C@@H]1CCCOC1 [I-6] | 0.17 | 90 | 2 | > 164 | < 1 |  |  | 
7 | COCCn1c(=O)n(C)c2c(O[C@@H](C)[C@@H]3CCCN3C)nc(-c3onc4c3CCC[C@@]43CCCc4sc(N)c(C#N)c43)nc21 [I-7] | 0.24 | 373 | 3 | > 150 | > 147 |  |  | 
8 | C[C@H](Oc1nc(-c2onc3c2CCC[C@@]32CCCc3sc(N)c(C#N)c32)nc2c1[nH]c(=O)n2[C@@H]1CCOC1)[C@@H]1CCCN1C [I-8] | 0.4 | 41 | 1 | > 147 | > 139 |  |  | 
9 | C[C@H](Oc1nc(-c2onc3c2CCC[C@@]32CCCc3sc(N)c(C#N)c32)nc2c1n(C)c(=O)n2[C@H]1CCOC1)[C@@H]1CCCN1C [I-9] | 0.25 | 135 | 2 | > 149 | > 144 |  |  | 
10 | C[C@H](Oc1nc(-c2onc3c2CCC[C@@]32CCCc3sc(N)c(C#N)c32)nc2c1n(C)c(=O)n2C1CCOCC1)[C@@H]1CCCN1C [I-10] | 0.24 | 109 | 2 | > 151 | > 148 |  |  | 
11 | C[C@H](Oc1nc(-c2onc3c2CCC[C@@]32CCCc3sc(N)c(C#N)c32)nc2c1n(C)c(=O)n2[C@H]1CCCOC1)[C@@H]1CCCN1C [I-11] | 0.06 | 334 | 4 | > 149 | 99 (≈ 154 µM) |  |  | 
12 | C[C@H](Oc1nc(-c2onc3c2CCC[C@@]32CCCc3sc(N)c(C#N)c32)nc2c1n(C)c(=O)n2[C@@H]1CCCOC1)[C@@H]1CCCN1C [I-12] | 0.18 | 10 | 1 | > 155 | > 142 |  |  | 
13 | C[C@H](Oc1nc(-c2onc3c2CCC[C@@]32CCCc3sc(N)c(C#N)c32)nc2c1[nH]c(=O)n2[C@@H]1CCCOC1)[C@@H]1CCCN1C [I-13] | 0.18 | 11 | 2 | > 148 | > 131 |  |  | 
14 | CO[C@@H]1C[C@@H]([C@H](C)Oc2nc(-c3onc4c3CCC[C@@]43CCCc4sc(N)c(C#N)c43)nc3c2n(C)c(=O)n3[C@@H]2CCCOC2)N(C)C1 [I-14] | 0.15 | 48 | 2 | > 163 | < 1 |  |  | 
15 | CCn1c(=O)n([C@@H]2CCCOC2)c2nc(-c3onc4c3CCC[C@@]43CCCc4sc(N)c(C#N)c43)nc(OCC3(CN4CCCC4)CC3)c21 [I-35] | 0.07 | 978 | 2 |  |  |  |  | 
16 | C[C@H](Oc1nc(-c2noc3c2CCC[C@@]32CCCc3sc(N)c(C#N)c32)nc2c1CCCO[C@]21CCOC1)[C@@H]1CCCN1C [II-10] | 0.28 | 10 | 1 |  |  |  |  | 
17 | C[C@H](Oc1nc(-c2noc3c2CCC[C@@]32CCCc3sc(N)c(C#N)c32)nc2c1CC[C@]21CNCCO1)[C@@H]1C[C@@H](F)CN1C [II-20] |  |  | 2 |  |  | 10 | >156 | >156

— patent US20250019385A1, “SPIROCYCLIC ANNULATED 2-AMINO-3-CYANO THIOPHENES AND DERIVATIVES FOR THE TREATMENT OF CANCER” (Boehringer Ingelheim International GmbH, priority 2023, published 2025)
